What was measured:
Assay in all cases: Kinase inhibitory activity profiling of RI-962@10 µM (406 kinases, Eurofins)
Assay type in all cases: biochemical
[1] = biological target: panel of human kinases (kinase named in endpoint) (Homo sapiens, UniProt P42681); conditions: 10 µM; read-out: Activity (%), Txk(h)
How it was run: (§1)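 Radiometric filter-binding kinase assays: enzyme preincubated 15 min with compound in 8 mM MOPS pH 7.0, 0.2 mM EDTA, 250 μM peptide substrate, 10 mM magnesium acetate, 10 μM [γ-33P]-ATP. Reaction started with Mg/ATP, run 40 min at room temperature, stopped with phosphoric acid; 33P incorporation read by scintillation counting. Other kinases by similar protocols.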

[2] = biological target: panel of human kinases (kinase named in endpoint) (Homo sapiens, UniProt Q8N4C8); conditions: 10 µM; read-out: Activity (%), MINK(h)
How it was run: as §1

[3] = biological target: panel of human kinases (kinase named in endpoint) (Homo sapiens, UniProt Q15303); conditions: 10 µM; read-out: Activity (%), ErbB4(h)
Chain of panel of human kinases (kinase named in endpoint) (Homo sapiens, UniProt Q15303) (Q15303 26-1308): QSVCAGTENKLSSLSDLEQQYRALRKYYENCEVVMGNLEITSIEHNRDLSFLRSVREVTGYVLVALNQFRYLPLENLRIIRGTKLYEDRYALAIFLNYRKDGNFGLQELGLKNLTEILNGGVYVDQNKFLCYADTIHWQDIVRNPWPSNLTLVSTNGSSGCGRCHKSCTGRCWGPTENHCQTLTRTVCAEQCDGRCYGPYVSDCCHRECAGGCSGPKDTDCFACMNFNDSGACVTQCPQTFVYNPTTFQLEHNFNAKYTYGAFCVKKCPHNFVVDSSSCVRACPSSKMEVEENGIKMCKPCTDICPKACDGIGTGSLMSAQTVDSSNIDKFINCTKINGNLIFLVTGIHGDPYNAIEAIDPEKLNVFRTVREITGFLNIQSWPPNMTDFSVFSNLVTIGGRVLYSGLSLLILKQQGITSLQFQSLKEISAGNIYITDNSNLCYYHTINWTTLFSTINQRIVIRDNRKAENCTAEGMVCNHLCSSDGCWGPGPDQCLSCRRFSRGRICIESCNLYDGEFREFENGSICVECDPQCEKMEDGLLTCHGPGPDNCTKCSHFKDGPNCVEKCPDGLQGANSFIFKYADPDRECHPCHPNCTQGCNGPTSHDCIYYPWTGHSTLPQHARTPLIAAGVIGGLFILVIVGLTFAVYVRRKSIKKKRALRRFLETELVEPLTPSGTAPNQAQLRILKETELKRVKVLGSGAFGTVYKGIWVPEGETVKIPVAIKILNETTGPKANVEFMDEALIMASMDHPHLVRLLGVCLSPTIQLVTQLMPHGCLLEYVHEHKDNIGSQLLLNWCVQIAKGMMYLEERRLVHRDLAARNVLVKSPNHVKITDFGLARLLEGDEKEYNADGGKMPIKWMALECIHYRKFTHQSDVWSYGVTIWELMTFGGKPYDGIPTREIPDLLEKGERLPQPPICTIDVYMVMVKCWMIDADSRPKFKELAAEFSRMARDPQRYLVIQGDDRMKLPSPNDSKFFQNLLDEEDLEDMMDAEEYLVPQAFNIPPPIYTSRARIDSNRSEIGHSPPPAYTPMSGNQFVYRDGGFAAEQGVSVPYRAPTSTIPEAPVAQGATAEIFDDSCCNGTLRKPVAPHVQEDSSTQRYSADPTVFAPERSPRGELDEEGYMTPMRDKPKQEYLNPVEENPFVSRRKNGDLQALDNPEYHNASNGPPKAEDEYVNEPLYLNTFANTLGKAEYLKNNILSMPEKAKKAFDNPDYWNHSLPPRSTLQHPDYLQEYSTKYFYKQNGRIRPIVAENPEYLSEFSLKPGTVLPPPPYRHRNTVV
How it was run: as §1

[4] = biological target: panel of human kinases (kinase named in endpoint) (Homo sapiens, UniProt P00519, Y253F); conditions: 10 µM; read-out: Activity (%), Abl(Y253F)(h)
How it was run: as §1

[5] = biological target: panel of human kinases (kinase named in endpoint) (Homo sapiens, UniProt Q13131); conditions: 10 µM; read-out: Activity (%), AMPKα1(h)
How it was run: as §1

[6] = biological target: panel of human kinases (kinase named in endpoint) (Homo sapiens, UniProt Q02763, Y897S); conditions: 10 µM; read-out: Activity (%), Tie2(Y897S)(h)
Chain of panel of human kinases (kinase named in endpoint) (Homo sapiens, UniProt Q02763, Y897S) (Q02763 23-1124 Y897S): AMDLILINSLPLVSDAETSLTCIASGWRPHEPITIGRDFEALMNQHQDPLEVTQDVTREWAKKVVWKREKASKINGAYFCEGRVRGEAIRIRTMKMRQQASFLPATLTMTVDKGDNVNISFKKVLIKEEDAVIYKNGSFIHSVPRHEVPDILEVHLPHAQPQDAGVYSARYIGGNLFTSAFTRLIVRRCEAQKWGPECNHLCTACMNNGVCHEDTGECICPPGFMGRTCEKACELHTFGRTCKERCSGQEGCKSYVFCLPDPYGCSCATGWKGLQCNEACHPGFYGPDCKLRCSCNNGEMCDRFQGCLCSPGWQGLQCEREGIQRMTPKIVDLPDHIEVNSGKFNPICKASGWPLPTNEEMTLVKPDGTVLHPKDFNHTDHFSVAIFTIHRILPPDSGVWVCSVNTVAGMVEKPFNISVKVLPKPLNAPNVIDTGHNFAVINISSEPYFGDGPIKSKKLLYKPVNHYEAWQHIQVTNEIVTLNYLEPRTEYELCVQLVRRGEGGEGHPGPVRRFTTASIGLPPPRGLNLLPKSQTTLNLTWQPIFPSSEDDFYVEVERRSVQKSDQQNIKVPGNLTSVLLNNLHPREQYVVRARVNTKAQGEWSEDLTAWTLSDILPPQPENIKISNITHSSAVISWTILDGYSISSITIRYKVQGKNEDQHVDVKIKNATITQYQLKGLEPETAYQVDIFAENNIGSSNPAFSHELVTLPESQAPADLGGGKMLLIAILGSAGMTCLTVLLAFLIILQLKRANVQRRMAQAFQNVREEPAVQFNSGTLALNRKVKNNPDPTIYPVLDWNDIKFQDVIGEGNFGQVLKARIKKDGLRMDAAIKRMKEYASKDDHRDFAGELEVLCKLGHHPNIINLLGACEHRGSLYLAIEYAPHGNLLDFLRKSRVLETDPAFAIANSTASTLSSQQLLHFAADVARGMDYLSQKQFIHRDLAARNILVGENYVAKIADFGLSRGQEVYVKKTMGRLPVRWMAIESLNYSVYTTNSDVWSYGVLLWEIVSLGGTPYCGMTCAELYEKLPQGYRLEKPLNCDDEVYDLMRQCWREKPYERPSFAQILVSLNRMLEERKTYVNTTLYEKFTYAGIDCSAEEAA
How it was run: as §1

[7] = biological target: panel of human kinases (kinase named in endpoint) (Homo sapiens, UniProt O75676); conditions: 10 µM; read-out: Activity (%), MSK2(h)
How it was run: as §1

[8] = biological target: panel of human kinases (kinase named in endpoint) (Homo sapiens, UniProt P16591); conditions: 10 µM; read-out: Activity (%), Fer(h)
How it was run: as §1

[9] = biological target: panel of human kinases (kinase named in endpoint) (Homo sapiens, UniProt P15735); conditions: 10 µM; read-out: Activity (%), PhKγ2(h)
Chain of panel of human kinases (kinase named in endpoint) (Homo sapiens, UniProt P15735) (P15735 whole entry): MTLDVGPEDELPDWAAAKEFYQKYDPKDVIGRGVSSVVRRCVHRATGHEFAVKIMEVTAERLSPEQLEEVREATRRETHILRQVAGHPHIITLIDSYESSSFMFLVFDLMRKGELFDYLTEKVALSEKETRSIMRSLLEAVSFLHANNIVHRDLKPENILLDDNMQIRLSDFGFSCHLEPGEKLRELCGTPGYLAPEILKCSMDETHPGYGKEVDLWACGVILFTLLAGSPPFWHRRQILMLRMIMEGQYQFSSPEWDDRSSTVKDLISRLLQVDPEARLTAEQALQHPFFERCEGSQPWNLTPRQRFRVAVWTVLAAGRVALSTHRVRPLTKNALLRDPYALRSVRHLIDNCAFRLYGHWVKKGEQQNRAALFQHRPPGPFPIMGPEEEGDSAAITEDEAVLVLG
How it was run: as §1

[10] = biological target: panel of human kinases (kinase named in endpoint) (Homo sapiens, UniProt Q8IVW4); conditions: 10 µM; read-out: Activity (%), CDKL3(h)
How it was run: as §1

[11] = biological target: panel of human kinases (kinase named in endpoint) (Homo sapiens, UniProt P53779); conditions: 10 µM; read-out: Activity (%), JNK3(h)
Chain of panel of human kinases (kinase named in endpoint) (Homo sapiens, UniProt P53779) (P53779 whole entry): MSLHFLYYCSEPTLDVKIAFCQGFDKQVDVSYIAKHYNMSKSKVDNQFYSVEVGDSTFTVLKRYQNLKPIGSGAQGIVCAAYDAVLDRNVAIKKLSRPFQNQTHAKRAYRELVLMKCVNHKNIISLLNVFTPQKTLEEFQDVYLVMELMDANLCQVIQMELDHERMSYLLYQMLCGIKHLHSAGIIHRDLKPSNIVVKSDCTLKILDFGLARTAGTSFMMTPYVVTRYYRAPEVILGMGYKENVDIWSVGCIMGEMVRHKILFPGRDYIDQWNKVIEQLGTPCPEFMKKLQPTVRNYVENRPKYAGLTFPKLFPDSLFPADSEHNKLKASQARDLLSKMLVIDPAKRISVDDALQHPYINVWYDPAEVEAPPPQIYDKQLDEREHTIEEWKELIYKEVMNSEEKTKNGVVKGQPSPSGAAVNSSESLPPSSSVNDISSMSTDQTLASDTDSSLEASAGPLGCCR
How it was run: as §1

[12] = biological target: panel of human kinases (kinase named in endpoint) (Homo sapiens, UniProt Q9Y2H1); conditions: 10 µM; read-out: Activity (%), NDR2(h)
Chain of panel of human kinases (kinase named in endpoint) (Homo sapiens, UniProt Q9Y2H1) (Q9Y2H1 whole entry): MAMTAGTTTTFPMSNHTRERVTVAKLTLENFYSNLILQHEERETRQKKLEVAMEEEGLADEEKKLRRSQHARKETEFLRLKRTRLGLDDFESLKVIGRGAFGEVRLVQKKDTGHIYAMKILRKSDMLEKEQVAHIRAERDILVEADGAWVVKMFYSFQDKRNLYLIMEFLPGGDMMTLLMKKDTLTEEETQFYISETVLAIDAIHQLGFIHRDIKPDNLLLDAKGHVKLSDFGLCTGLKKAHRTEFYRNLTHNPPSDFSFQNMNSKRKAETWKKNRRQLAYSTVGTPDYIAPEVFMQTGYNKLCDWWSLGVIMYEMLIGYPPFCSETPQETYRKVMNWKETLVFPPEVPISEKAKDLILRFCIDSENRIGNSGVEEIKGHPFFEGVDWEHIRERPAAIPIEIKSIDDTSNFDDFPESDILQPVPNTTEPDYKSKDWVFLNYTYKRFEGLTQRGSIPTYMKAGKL
How it was run: as §1

[13] = biological target: panel of human kinases (kinase named in endpoint) (Homo sapiens, UniProt Q08881); conditions: 10 µM; read-out: Activity (%), Itk(h)
How it was run: as §1

[14] = biological target: panel of human kinases (kinase named in endpoint) (Homo sapiens, UniProt P00533, L861Q); conditions: 10 µM; read-out: Activity (%), EGFR(L861Q)(h)
How it was run: as §1

[15] = biological target: panel of human kinases (kinase named in endpoint) (Homo sapiens, UniProt P05129); conditions: 10 µM; read-out: Activity (%), PKCγ(h)
How it was run: as §1

[16] = biological target: panel of human kinases (kinase named in endpoint) (Homo sapiens, UniProt Q9BYP7); conditions: 10 µM; read-out: Activity (%), WNK3(h)
How it was run: as §1

[17] = biological target: panel of human kinases (kinase named in endpoint) (Homo sapiens, UniProt P53355); conditions: 10 µM; read-out: Activity (%), DAPK1(h)
How it was run: as §1

[18] = biological target: panel of human kinases (kinase named in endpoint) (Homo sapiens, UniProt P51817); conditions: 10 µM; read-out: Activity (%), PrKX(h)
Chain of panel of human kinases (kinase named in endpoint) (Homo sapiens, UniProt P51817) (P51817 whole entry): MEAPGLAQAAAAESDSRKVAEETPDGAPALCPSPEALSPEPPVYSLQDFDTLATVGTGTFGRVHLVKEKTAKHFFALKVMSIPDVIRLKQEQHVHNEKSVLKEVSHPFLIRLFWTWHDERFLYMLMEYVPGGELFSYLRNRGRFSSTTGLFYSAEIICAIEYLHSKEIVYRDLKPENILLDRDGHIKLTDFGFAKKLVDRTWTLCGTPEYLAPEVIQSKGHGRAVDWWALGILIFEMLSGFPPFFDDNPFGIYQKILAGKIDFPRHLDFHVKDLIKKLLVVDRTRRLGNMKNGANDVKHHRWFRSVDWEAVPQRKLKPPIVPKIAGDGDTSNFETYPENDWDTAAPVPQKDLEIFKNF
How it was run: as §1

[19] = biological target: panel of human kinases (kinase named in endpoint) (Homo sapiens, UniProt P23458); conditions: 10 µM; read-out: Activity (%), JAK1(h)
How it was run: as §1

[20] = biological target: panel of human kinases (kinase named in endpoint) (Homo sapiens, UniProt Q9Y5S2); conditions: 10 µM; read-out: Activity (%), MRCKβ(h)
How it was run: as §1

[21] = biological target: panel of human kinases (kinase named in endpoint) (Homo sapiens, UniProt P49761); conditions: 10 µM; read-out: Activity (%), CLK3(h)
How it was run: as §1

[22] = biological target: panel of human kinases (kinase named in endpoint) (Homo sapiens, UniProt Q04912); conditions: 10 µM; read-out: Activity (%), Ron(h)
How it was run: as §1

[23] = biological target: panel of human kinases (kinase named in endpoint) (Homo sapiens, UniProt Q9UQB9); conditions: 10 µM; read-out: Activity (%), Aurora-C(h)
How it was run: as §1

[24] = biological target: panel of human kinases (kinase named in endpoint) (Homo sapiens, UniProt P42685); conditions: 10 µM; read-out: Activity (%), PTK5(h)
Chain of panel of human kinases (kinase named in endpoint) (Homo sapiens, UniProt P42685) (P42685 whole entry): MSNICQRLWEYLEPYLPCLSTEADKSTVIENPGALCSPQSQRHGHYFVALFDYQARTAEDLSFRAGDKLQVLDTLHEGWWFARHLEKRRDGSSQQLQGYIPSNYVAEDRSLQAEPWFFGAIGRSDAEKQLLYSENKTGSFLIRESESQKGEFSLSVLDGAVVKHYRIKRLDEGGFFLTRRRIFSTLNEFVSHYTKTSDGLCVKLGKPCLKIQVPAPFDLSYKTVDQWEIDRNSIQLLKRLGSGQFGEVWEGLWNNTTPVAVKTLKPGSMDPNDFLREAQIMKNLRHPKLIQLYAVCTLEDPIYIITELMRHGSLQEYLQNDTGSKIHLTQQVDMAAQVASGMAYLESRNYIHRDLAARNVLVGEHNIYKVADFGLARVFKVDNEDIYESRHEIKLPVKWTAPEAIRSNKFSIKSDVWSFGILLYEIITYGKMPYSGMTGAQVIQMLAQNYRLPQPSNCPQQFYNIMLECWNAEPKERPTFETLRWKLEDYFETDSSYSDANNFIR
How it was run: as §1

[25] = biological target: panel of human kinases (kinase named in endpoint) (Homo sapiens, UniProt Q9NSY1); conditions: 10 µM; read-out: Activity (%), BIKe(h)
How it was run: as §1

[26] = biological target: panel of human kinases (kinase named in endpoint) (Homo sapiens, UniProt Q13882); conditions: 10 µM; read-out: Activity (%), BRK(h)
Chain of panel of human kinases (kinase named in endpoint) (Homo sapiens, UniProt Q13882) (Q13882 whole entry): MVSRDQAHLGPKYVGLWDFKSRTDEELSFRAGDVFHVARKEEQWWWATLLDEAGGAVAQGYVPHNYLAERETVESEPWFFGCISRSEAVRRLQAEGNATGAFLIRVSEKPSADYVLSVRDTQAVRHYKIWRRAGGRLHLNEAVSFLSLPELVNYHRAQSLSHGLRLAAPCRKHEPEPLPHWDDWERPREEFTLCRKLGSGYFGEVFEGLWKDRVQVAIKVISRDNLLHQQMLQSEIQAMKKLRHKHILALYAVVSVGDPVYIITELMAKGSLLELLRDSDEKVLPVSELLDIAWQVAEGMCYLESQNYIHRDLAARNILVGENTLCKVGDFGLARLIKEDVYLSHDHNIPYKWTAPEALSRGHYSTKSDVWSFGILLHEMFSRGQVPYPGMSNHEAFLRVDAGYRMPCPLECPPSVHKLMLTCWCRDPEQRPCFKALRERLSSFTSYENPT
How it was run: as §1

## CC(C)C(=O)Nc1nc2cc(-c3ccc4c(c3)c(C(=O)NC(C)c3ccccc3)cn4C)ccn2n1 (centres unmarked) [RI-962]
[1]
  activity at 10 µM: 94%
[2]
  activity at 10 µM: 63%
[3]
  activity at 10 µM: 98%
[4]
  activity at 10 µM: 102%
[5]
  activity at 10 µM: 93%
[6]
  activity at 10 µM: 69%
[7]
  activity at 10 µM: 94%
[8]
  activity at 10 µM: 107%
[9]
  activity at 10 µM: 93%
[10]
  activity at 10 µM: 84%
[11]
  activity at 10 µM: 56%
[12]
  activity at 10 µM: 85%
[13]
  activity at 10 µM: 71%
[14]
  activity at 10 µM: 82%
[15]
  activity at 10 µM: 93%
[16]
  activity at 10 µM: 75%
[17]
  activity at 10 µM: 95%
[18]
  activity at 10 µM: 126%
[19]
  activity at 10 µM: 85%
[20]
  activity at 10 µM: 79%
[21]
  activity at 10 µM: 94%
[22]
  activity at 10 µM: 104%
[23]
  activity at 10 µM: 95%
[24]
  activity at 10 µM: 104%
[25]
  activity at 10 µM: 60%
[26]
  activity at 10 µM: 101%

Source: publication PMC9653409, “Generative deep learning enables the discovery of a potent and selective RIPK1 inhibitor” (Nature Communications, 2022)
